# Bridge positions count the residues as written; N and C are the ends. Ends that are not written are not given here. Peptide text beside a SMILES is read from it.
# Assays:
# trypsin = trypsin digest time-course experiment with mass spectrometry analysis; format: in vitro ADME; conditions: trypsin in Krebbs buffer, 24° C., 0-120 minutes
# Text: In an effort to further understand the oral availability of cyclic CAR peptide, we tested the stability of cyclic CAR (cCAR) and linear CAR in the presence of trypsin, a serine protease that is one of the primary enzymes found in the digestive system of vertebrates. Trypsin selectively cleaves peptide chains at the carboxyl side of the basic residues lysine and arginine, yielding a potentially wide variety of peptide fragments.
# We conducted a trypsin proteolysis time course experiment, and tested cCAR and linear CAR (cyclic CAR that lacks the disulfide bond between adjacent cysteine residues and has a linear structure) in the presence of a trypsin solution.
# For the digest time course experiment, the cCAR peptide sample was prepared by dissolving cCAR in Krebbs buffer (670 μM CAR), and the trypsin digest solution was prepared by adding trypsin to Krebbs buffer as well (0.1 μg/μL Trypsin). 15 μL CAR (670 μM) was added to 40 μL trypsin solution (0.1 μg/μL) and 75 μL Krebbs buffer. The reaction was allowed to proceed at 24° C. for different time periods of time. The reactions were quenched with 20 μL formic acid (500 μM) at different time points to stop trypsin from degrading any further peptide substrate. These steps were performed repeatedly for multiple time points (t=0, 5, 10, 15, 20, 30, 60, 120 minutes) for both cCAR and linear CAR. The different time point samples were desalted and analyzed using mass spectrometry.
# [1] = tested on: severe occlusive PAH rats (SU5416/Hx/Nx-exposed); assay: hemodynamic effect of oral CAR 3 hours prior to i.v. imatinib in severe occlusive rat model of PAH; format: in vivo
# Protocol: Anesthetized severe occlusive PAH rats were then catheterized in the right jugular vein for measurement of right ventricular systolic pressure (RVSP), the right carotid artery and advanced into the aorta for the measurement of systemic pressure (SAP) and the left jugular vein for drug administration.
# Values are means±SE. N=3 without CAR and N=5 with CAR *p<0.05 vs. without CAR.
# Recently we sought to explore the hemodynamic effect of orally administering 20 mg/kg of CAR 3 hours prior to i.v. administration of imatinib at doses of 5 mg/kg and 20 mg/kg in a severe occlusive rat model of PAH. Rats were first orally syringe fed a mixture of 20 mg/Kg CAR in a 10% sucrose solution 3 hours prior to anesthetization and assessment of the hemodynamic effects of i.v. administration of 5 mg/kg imatinib followed 20 minutes later by i.v. administration of 20 mg/kg of imatinib (FIG. 1).
# [2] = tested on: SU/Hx/Nx rats with severe occlusive model PAH; assay: sublingual CAR +/- imatinib or sildenafil in rats with severe occlusive model PAH; format: in vivo, rat; conditions: CAR 3 mg/kg sublingual; i.v. bolus imatinib or sildenafil; RVSP and SAP
# Protocol: (A) a pulmonary artery with medial thickening, (B) a small pulmonary artery with neointimal occlusion, (C) spleen, (D) liver, and (E) kidney from a SU/Hx/Nx rat. […] Effects of CAR (3 mg/kg, sublingual) on intravenous (bolus) imatinib (F)- and sildenafil (G)- induced reductions in right ventricular systolic pressure (RVSP) and systemic arterial pressure (SAP) in SU/Hx/Nx rats. Values are means±SE. N=4-6. *p<0.05 with (solid line) vs. without (dashed line) CAR.
# CAR was administered sublingually at a dosing of 3 mg/kg. The administration was performed in six rats with severe occlusive model PAH via dropper sublingually. The administration was +/− imatinib or +/− sildenafil.
# [3] = tested on: pulmonary hypertensive arteries; conditions: monocrotaline (MCT) and SU5416/Hypoxia/Normoxia severe occlusive rat models of PAH; cited from earlier work
# [4] = co-administered with the Rho-kinase inhibitor fasudil; cited from earlier work
# [5] = imatinib i.v. 20 mg/kg, 3 hours after oral CAR 20 mg/kg, severe occlusive PAH rats
Compound,outcome of trypsin digest (stability in words) (trypsin),resistance to trypsin digestion relative to cCAR (trypsin),resistance to trypsin digestion relative to linear CAR (trypsin),"adjuvant activity after oral administration ([1]; 3 hours after oral CAR 20 mg/kg in 10% sucrose, i.v. imatinib)","change in systemic arterial pressure (SAP) [1, 5]","reduction in right ventricular systolic pressure (RVSP) [1, 5]",effect on action of co-administered drugs [2],homing to pulmonary hypertensive arteries [3],vasodilation when co-administered with fasudil [4]
"C[C@H](NC(=O)[C@@H]1CSSC[C@H](NC(=O)[C@H](CC(=O)O)NC(=O)[C@H](CCCCN)NC(=O)[C@H](CC(N)=O)NC(=O)[C@H](CCCCN)NC(=O)[C@@H](N)CO)C(=O)N1)C(=O)N[C@@H](CCCNC(=N)N)C(=O)O [SEQ ID NO: 5, SKNKDCCAR] (H-SKNKDCCAR-OH; disulfide 6-7; N-terminus and C-terminus assumed)",largely resistant to further degradation by trypsin,approximately 10 fold,approximately 100 fold,–,–,–,–,–,–
C[C@H](NC(=O)[C@@H](N)CS)C(=O)N[C@@H](CCCNC(=N)N)C(=O)N[C@@H](CO)C(=O)N[C@@H](CCCCN)C(=O)N[C@@H](CC(N)=O)C(=O)N[C@@H](CCCCN)C(=O)N[C@@H](CC(=O)O)C(=O)N[C@@H](CS)C(=O)O [linear CAR] (H-CARSKNKDC-OH; N-terminus and C-terminus assumed),quickly digested by trypsin into its constituent amino acids,–,–,–,–,–,–,–,–
CARSKNKDC (disulfide 1-9 (inferred)) [cell-penetrating homing peptide],yielded one predominant product that persisted over the time course of the experiment,–,–,displayed pulmonary selective adjuvant activity,no change,18%,can facilitate the selective action of co-administered drugs at the site of the disease,shown to home to pulmonary hypertensive arteries,acute pulmonary selective vasodilation

# Reference: US11524077B2, “Orally active, cell-penetrating homing peptide and methods using same” (Vascular BioSciences, priority 2012, dated 2022)
